Values quoted from earlier work, collected in patent publication US6670392B2, “Compositions and methods for the prevention and treatment of human prostate cancer” (Bioadvantex Pharma Inc., priority 2001, dated 2003).

Settings: synthetic dl-α-tocopherol as standard; cited from earlier work

## Cc1c(C)c2c(c(C)c1O)CC[C@@](C)(CCC[C@H](C)CCC[C@H](C)CCCC(C)C)O2 [d-α-tocopherol]
  bioactivity relative to synthetic dl-α-tocopherol: 1.49 times
